Measurements: US12077503B2, “Substituted cyclic amides and their use as herbicides” (FMC CORPORATION, priority 2015, dated 2024)

How the values were obtained:
Type in all cases: in vivo
[1] = system: ragweed (common ragweed, Ambrosia elatior); assay: Test A preemergence; details: Ambrosia artemisiifolia, pre-emergence, 240 h
Procedure, shortened: (§1)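 Ratings of 0 (no effect) to 100 (complete control) come from visual comparison with untreated controls roughly 10 d after treatment. Test chemicals, formulated in a non-phytotoxic solvent mixture with surfactant, were applied either as a preemergence directed soil spray on seeded soil or postemergence to one- to two-leaf plants 2 to 10 cm tall.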

[2] = system: barnyardgrass (Echinochloa crus-galli); assay: Test A preemergence; details: Echinochloa crus-galli, pre-emergence, 240 h
Procedure, shortened: as §1

Kochia (Kochia scoparia) [3] = assay: Test A preemergence; details: Bassia scoparia, pre-emergence, 240 h
Procedure, shortened: as §1

[4] = system: ryegrass, Italian (Italian ryegrass, Lolium multiflorum); assay: Test A preemergence; details: Lolium multiflorum, pre-emergence, 240 h
Procedure, shortened: as §1

[5] = system: giant foxtail (Setaria faberii); assay: Test A preemergence; details: Setaria faberi, pre-emergence, 240 h
Procedure, shortened: as §1

[6] = system: pigweed (Amaranthus retroflexus); assay: Test A preemergence; details: Amaranthus retroflexus, pre-emergence, 240 h
corn (Zea mays) = assay: Test A postemergence; details: Zea mays, post-emergence, 240 h, 125 g ai/ha, Postemergence; visual injury after approximately 10 d; 0 to 100 scale where 0 is no effect and 100 is complete control
Procedure, shortened: as §1

[7] = system: ragweed (common ragweed, Ambrosia elatior); assay: Test A postemergence; details: Ambrosia artemisiifolia, post-emergence, 240 h, 125 g ai/ha, Postemergence; visual injury after approximately 10 d; 0 to 100 scale where 0 is no effect and 100 is complete control; read-out: Plant response rating, Ragweed
Procedure, shortened: as §1

[8] = system: Galium (catchweed bedstraw, Galium aparine); assay: Test A postemergence; details: Galium, post-emergence, 240 h, 125 g ai/ha, Postemergence; visual injury after approximately 10 d; 0 to 100 scale where 0 is no effect and 100 is complete control; read-out: Plant response rating, Galium
Procedure, shortened: as §1

[9] = system: blackgrass (Alopecurus myosuroides); assay: Test A postemergence; details: Alopecurus myosuroides, post-emergence, 240 h, 125 g ai/ha, Postemergence; visual injury after approximately 10 d; 0 to 100 scale where 0 is no effect and 100 is complete control; read-out: Plant response rating, Blackgrass
Procedure, shortened: as §1

[10] = system: barnyardgrass (Echinochloa crus-galli); assay: Test A postemergence; details: Echinochloa crus-galli, post-emergence, 240 h, 125 g ai/ha, Postemergence; visual injury after approximately 10 d; 0 to 100 scale where 0 is no effect and 100 is complete control; read-out: Plant response rating, Barnyardgrass
Procedure, shortened: as §1

[11] = system: wheat (Triticum aestivum); assay: Test A postemergence; details: Triticum aestivum, post-emergence, 240 h, 125 g ai/ha, Postemergence; visual injury after approximately 10 d; 0 to 100 scale where 0 is no effect and 100 is complete control; read-out: Plant response rating, Wheat
Procedure, shortened: as §1

Kochia (Kochia scoparia) [12] = assay: Test A postemergence; details: Bassia scoparia, post-emergence, 240 h, 125 g ai/ha, Postemergence; visual injury after approximately 10 d; 0 to 100 scale where 0 is no effect and 100 is complete control; read-out: Plant response rating, Kochia
Procedure, shortened: as §1

[13] = system: ryegrass, Italian (Italian ryegrass, Lolium multiflorum); assay: Test A postemergence; details: Lolium multiflorum, post-emergence, 240 h, 125 g ai/ha, Postemergence; visual injury after approximately 10 d; 0 to 100 scale where 0 is no effect and 100 is complete control; read-out: Plant response rating, Ryegrass, Italian
Procedure, shortened: as §1

[14] = system: giant foxtail (Setaria faberii); assay: Test A postemergence; details: Setaria faberi, post-emergence, 240 h, 125 g ai/ha, Postemergence; visual injury after approximately 10 d; 0 to 100 scale where 0 is no effect and 100 is complete control; read-out: Plant response rating, Foxtail, Giant
Procedure, shortened: as §1

[15] = system: pigweed (Amaranthus retroflexus); assay: Test A postemergence; details: Amaranthus retroflexus, post-emergence, 240 h, 125 g ai/ha, Postemergence; visual injury after approximately 10 d; 0 to 100 scale where 0 is no effect and 100 is complete control; read-out: Plant response rating, Pigweed
Procedure, shortened: as §1

[16] = system: ducksalad (Heteranthera limosa); assay: Test B flooded paddy test; details: Heteranthera limosa, Flood, 250 g ai/ha; scale of 0 to 100 where 0 is no effect and 100 is complete control; read-out: Ducksalad plant response rating
Procedure, shortened: (§2)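 Visual ratings (0 none to 100 complete control) are relative to untreated plants, taken 13–15 d after treatment in a greenhouse. Test material went straight into floodwater standing 3 cm above the soil, kept constant, on plants at the 2-leaf stage.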

[17] = system: barnyardgrass (Echinochloa crus-galli); assay: Test B flooded paddy test; details: Echinochloa crus-galli, Flood, 250 g ai/ha; scale of 0 to 100 where 0 is no effect and 100 is complete control; read-out: Barnyardgrass plant response rating
Procedure, shortened: as §2

[18] = system: sedge, umbrella (small-flower umbrella sedge, Cyperus difformis); assay: Test B flooded paddy test; details: Cyperus difformis, Flood, 250 g ai/ha; scale of 0 to 100 where 0 is no effect and 100 is complete control; read-out: Sedge, Umbrella plant response rating
Procedure, shortened: as §2

rice (Oryra sativa) = assay: Test B flooded paddy test; details: Oryza sativa, Flood, 250 g ai/ha; scale of 0 to 100 where 0 is no effect and 100 is complete control; read-out: Rice plant response rating
Procedure, shortened: as §2

With `COc1ccc([C@H]2CN(C)C(=O)[C@@H]2C(=O)Nc2ccccc2F)cc1C(F)(F)F` [Compound 984] the pest or weed control at 125 g/ha ([1]; 125 g ai/ha, Preemergence, visual injury rating after approximately 10 d, read-out: Ragweed plant response rating (0 to 100 scale, 0 is no effect, 100 is complete control)) was 0%, the pest or weed control at 500 g/ha ([1]; 500 g ai/ha, preemergence, visual injury rating about 10 d after treatment, 0 to 100 scale (0 no effect, 100 complete control), read-out: Ragweed plant response rating) was 30% and the pest or weed control at 125 g/ha ([2]; 125 g ai/ha, Preemergence, visual injury rating after approximately 10 d, read-out: Barnyardgrass plant response rating (0 to 100 scale, 0 is no effect, 100 is complete control)) was 100%. For the same compound, the pest or weed control at 500 g/ha ([2]; 500 g ai/ha, preemergence, visual injury rating about 10 d after treatment, 0 to 100 scale (0 no effect, 100 complete control), read-out: Barnyardgrass plant response rating) was 100%, the pest or weed control at 125 g/ha (Kochia (Kochia scoparia) [3]; 125 g ai/ha, Preemergence, visual injury rating after approximately 10 d, read-out: Kochia plant response rating (0 to 100 scale, 0 is no effect, 100 is complete control)) was 90% and the pest or weed control at 500 g/ha (Kochia (Kochia scoparia) [3]; 500 g ai/ha, preemergence, visual injury rating about 10 d after treatment, 0 to 100 scale (0 no effect, 100 complete control), read-out: Kochia plant response rating) was 90%. It also gave a pest or weed control at 125 g/ha ([4]; 125 g ai/ha, Preemergence, visual injury rating after approximately 10 d, read-out: Ryegrass, Italian plant response rating (0 to 100 scale, 0 is no effect, 100 is complete control)) of 70%, a pest or weed control at 500 g/ha ([4]; 500 g ai/ha, preemergence, visual injury rating about 10 d after treatment, 0 to 100 scale (0 no effect, 100 complete control), read-out: Ryegrass, Italian plant response rating) of 30% and a pest or weed control at 125 g/ha ([5]; 125 g ai/ha, Preemergence, visual injury rating after approximately 10 d, read-out: Foxtail, Giant plant response rating (0 to 100 scale, 0 is no effect, 100 is complete control)) of 100%. The pest or weed control at 500 g/ha ([5]; 500 g ai/ha, preemergence, visual injury rating about 10 d after treatment, 0 to 100 scale (0 no effect, 100 complete control), read-out: Foxtail, Giant plant response rating) was 100%, the pest or weed control at 125 g/ha ([6]; 125 g ai/ha, Preemergence, visual injury rating after approximately 10 d, read-out: Pigweed plant response rating (0 to 100 scale, 0 is no effect, 100 is complete control)) was 40% and the pest or weed control at 500 g/ha ([6]; 500 g ai/ha, preemergence, visual injury rating about 10 d after treatment, 0 to 100 scale (0 no effect, 100 complete control), read-out: Pigweed plant response rating) was 60%. For the same compound, the Corn plant response rating (crop injury, 0 = no effect, 100 = complete kill) at 125 g/ha (corn (Zea mays)) was 80%, the pest or weed control at 125 g/ha [7] was 0% and the pest or weed control at 125 g/ha [8] was 30%. For the same compound, the pest or weed control at 125 g/ha [9] was 30%, the pest or weed control at 125 g/ha [10] was 100% and the plant injury at 125 g/ha [11] was 20%. The pest or weed control at 125 g/ha (Kochia (Kochia scoparia) [12]) was 50%, the pest or weed control at 125 g/ha [13] was 20% and the pest or weed control at 125 g/ha [14] was 90%. The pest or weed control at 125 g/ha [15] was 0%, the pest or weed control at 250 g/ha [16] was 85% and the pest or weed control at 250 g/ha [17] was 55%. For the same compound, the pest or weed control at 250 g/ha [18] was 0% and the pest or weed control at 250 g/ha (rice (Oryra sativa)) was 15%.
